The source of these data is DBAASP.

Holding throughout (assay): ≥ marks a high value that may be exact or a test limit, other limits are often not marked, values filed in µg/mL are converted to µM
Assay [1] has as its system Escherichia coli BW25113 ΔsbmA.
In assay [2] the test system is Escherichia coli.
Assay [3] deals with Staphylococcus aureus ATCC 25923.
In assay [4] the test system is Escherichia coli BW25113.
For assay [5], the system named is Klebsiella pneumoniae ATCC 700603.
In assay [6] the test system is Acinetobacter baumannii ATCC 19606.
The test system of assay [7] is Pseudomonas aeruginosa ATCC 27853.
Assay [8] concerns Klebsiella pneumoniae ATCC 13883.
Assay [9] deals with Escherichia coli ATCC 25922.
The test system of assay [10] is Staphylococcus aureus USA 300 LAC.
Assay [11] concerns Staphylococcus aureus AB6538.
Assay [12] concerns Pseudomonas aeruginosa ATCC 9027.
Assay [13] has as its system Staphylococcus aureus AB94004.
In assay [14] the test system is Escherichia coli AB94012.
The subject of assay [15] is Pseudomonas aeruginosa H636.
In assay [16] the test system is Staphylococcus aureus ATCC 15752.
The subject of assay [17] is Candida albicans ATCC 10231.
For assay [18], the system named is Escherichia coli KCTC 2223.
Assay [19] relates to Salmonella typhimurium KCTC 2370.
In assay [20] the test system is Pseudomonas fluorescens NCIMB 9046.
Assay [21] relates to Staphylococcus aureus RN4220.
Assay [22] relates to Staphylococcus aureus Newman.
In assay [23] the test system is Klebsiella pneumoniae NCIMB 13218.
Assay [24] relates to Cronobacter sakazakii DPC 6440.
Assay [25] relates to Cronobacter sakazakii DSM 4485.
Assay [26] has as its system Cronobacter muytjensii ATCC 51329.
Assay [27] relates to Escherichia coli NCIMB 11843.
Assay [28] deals with Staphylococcus aureus NCTC 8325-4.
Assay [29] has as its system Staphylococcus aureus SA113.
The test system of assay [30] is Cronobacter sakazakii ATCC BAA-894.
For assay [31], the system named is Staphylococcus aureus RF122.
Assay [32] relates to Salmonella enterica subsp. enterica serovar Typhimurium LT2.
For assay [33], the system named is Salmonella enterica subsp. enterica serovar Typhimurium ATCC 700931.
For assay [34], the system named is Staphylococcus epidermidis ATCC 14990.
Assay [35] relates to Escherichia coli D31.
Assay [36] relates to Staphylococcus aureus ATCC 27660.
Assay [37] has as its system Pseudomonas aeruginosa ATCC 10145.
Assay [38] relates to Klebsiella pneumoniae ATCC 43816.
The test system of assay [39] is Candida albicans NCTC 1467.
Assay [40] relates to Staphylococcus aureus NCTC 10788.
In assay [41] the test system is Escherichia coli NCTC 10418.
Assay [42] has as its system Staphylococcus aureus NCTC 12493.
Assay [43] relates to Enterococcus faecalis NCTC 12697.

≈ marks a conversion by molar mass, not a printed value.

Take `CC[C@H](C)[C@H](NC(=O)[C@@H]1CCCN1C(=O)[C@H](CCCN=C(N)N)NC(=O)[C@H](CCCN=C(N)N)NC(=O)[C@H](Cc1c[nH]c2ccccc12)NC(=O)[C@@H](N)CCCN=C(N)N)C(=O)N[C@@H](CCCN=C(N)N)C(=O)N[C@@H](CCCN=C(N)N)C(=O)N[C@@H](CCCN=C(N)N)C(=O)N1CCC[C@H]1C(=O)N[C@H](C(=O)N[C@@H](CCCN=C(N)N)C(=O)N1CCC[C@H]1C(=O)N1CCC[C@H]1C(=O)N[C@@H](Cc1ccccc1)C(=O)N[C@@H](Cc1ccc(O)cc1)C(=O)N[C@@H](Cc1c[nH]c2ccccc12)C(=O)O)[C@@H](C)CC` [RWRRPIRRRPIRPPFYW]: the MIC (as a rule, the lowest concentration found to suppress growth) in assay [1] is 4 µM (≈ 9.64 µg/mL); in assay [2] it was 1.41 µM (≈ 3.41 µg/mL); in assay [3], 32 µM (≈ 77.1 µg/mL); in assay [4] it was 4 µM (≈ 9.64 µg/mL); in assay [5], 64 µM (≈ 154 µg/mL); in assay [6], 2 µM (≈ 4.82 µg/mL). For the same compound, in assay [7], the MIC is 32 µM (≈ 77.1 µg/mL).

Take `CC[C@H](C)[C@H](NC(=O)[C@H](CCCCN)NC(=O)[C@H](CCCN=C(N)N)NC(=O)[C@H](CC(C)C)NC(=O)[C@H](Cc1c[nH]c2ccccc12)NC(=O)[C@H](Cc1c[nH]c2ccccc12)NC(=O)[C@@H](N)Cc1c[nH]c2ccccc12)C(=O)N[C@@H](Cc1c[nH]c2ccccc12)C(N)=O` [WWWLRKIW]: the MIC turned out to be 12.5 µM (≈ 15.9 µg/mL) in assay [8], 8.8 µM (≈ 11.2 µg/mL) in [9] and 3.1 µM (≈ 3.94 µg/mL) in [10].

Consider `CC[C@H](C)[C@H](NC(=O)[C@H](CO)NC(=O)[C@@H]1CCCN1C(=O)[C@H](CC(C)C)NC(=O)[C@@H](NC(=O)[C@H](CO)NC(=O)CNC(=O)[C@H](CC(C)C)NC(=O)[C@@H](NC(=O)[C@H](CO)NC(=O)CNC(=O)[C@H](CC(C)C)NC(=O)[C@H](CC(C)C)NC(=O)CNC(=O)[C@H](CC(C)C)NC(=O)[C@@H](N)Cc1ccccc1)C(C)C)C(C)C)C(=O)N[C@@H](Cc1ccccc1)C(=O)N[C@@H](CCCCN)C(N)=O` [FLGLLGSVLGSVLPSIFK], for which the MIC in assay [11] was 6.77 µM (≈ 12.5 µg/mL); in [12], more than 54.1 µM; in assay [9], more than 54.1 µM; in [13], 6.77 µM (≈ 12.5 µg/mL); in assay [14], not below 54.1 µM; in assay [7], more than 54.1 µM.

In the case of `CC(C)C[C@H](NC(=O)[C@H](CCCCN)NC(=O)[C@H](CCCN=C(N)N)NC(=O)[C@H](CCC(N)=O)NC(=O)[C@@H](N)CO)C(=O)N[C@@H](C)C(=O)N[C@@H](C)C(=O)N[C@@H](CCCCN)C(=O)N[C@@H](CC(C)C)C(=O)N[C@H](C(=O)N[C@@H](CO)C(=O)N[C@@H](CCCCN)C(=O)O)[C@@H](C)O` [SQRKLAAKLTSK], the MIC in assay [15] is not below 32 µM; in assay [16], not below 32 µM; in assay [17] it was more than 32 µM; in assay [18] it was not below 32 µM; in assay [19], not below 32 µM.

Turning to `CC[C@H](C)[C@H](N)C(=O)N[C@@H](C)C(=O)N[C@@H](C)C(=O)N[C@@H](CCC(N)=O)C(=O)NCC(=O)N[C@@H](CC(C)C)C(=O)N1CCC[C@H]1C(=O)N[C@@H](CCC(N)=O)C(=O)N[C@@H](CCC(=O)O)C(=O)O` [IAAQGLPQE], the MIC was not below 1250 µM in [20]; not below 1250 µM in assay [21]; not below 1250 µM in assay [22]; not below 1250 µM in assay [23]; not below 312 µM in [24]; not below 2500 µM in [25]. In addition, the minimum inhibitory concentration (MIC) in assay [26] was not below 2500 µM; in assay [27], not below 1250 µM; in assay [28], not below 1250 µM; in [29], not below 1250 µM; in assay [30], not below 2500 µM; in [31], not below 1250 µM. The same compound returned a minimal inhibitory concentration (MIC) in assay [32] not below 1250 µM.

In the case of `C[C@H](N)C(=O)N[C@@H](Cc1ccccc1)C(=O)N[C@@H](Cc1c[nH]c2ccccc12)C(=O)N[C@@H](CCCCN)C(=O)N[C@@H](CCCCN)C(=O)N[C@@H](Cc1ccccc1)C(=O)N[C@@H](Cc1ccccc1)C(=O)N[C@@H](CCCCN)C(=O)N[C@@H](CCCCN)C(=O)N[C@@H](Cc1ccccc1)C(=O)N[C@@H](Cc1ccccc1)C(=O)N[C@@H](CCCCN)C(=O)N[C@@H](CO)C(=O)N[C@@H](C)C(=O)N[C@@H](CCCCN)C(=O)N[C@@H](CCCCN)C(=O)N[C@@H](Cc1ccccc1)C(=O)NCC(=O)O` [AFWKKFFKKFFKSAKKFG], the minimal inhibitory concentration (MIC) stood at 1.88 µM (≈ 4.27 µg/mL) in assay [33]; 0.94 µM (≈ 2.13 µg/mL) in [34]; 1.88 µM (≈ 4.27 µg/mL) in assay [35]; 1.88 µM (≈ 4.27 µg/mL) in assay [36]; 1.88 µM (≈ 4.27 µg/mL) in assay [37].

In the case of `CSCC[C@H](NC(=O)[C@H](CCC(=O)O)NC(=O)[C@H](CCCCN)NC(=O)[C@H](CC(C)C)NC(=O)[C@H](CCCCN)NC(=O)CNC(=O)[C@H](Cc1c[nH]c2ccccc12)NC(=O)[C@H](CC(C)C)NC(=O)[C@@H](N)CO)C(=O)N[C@@H](CC(C)C)C(=O)N[C@@H](C)C(=O)N[C@@H](CCCCN)C(=O)N[C@@H](C)C(=O)NCC(=O)N[C@@H](CCCCN)C(=O)N[C@@H](C)C(=O)N[C@H](C(=O)N[C@@H](C)C(=O)N[C@@H](CC(N)=O)C(=O)N[C@@H](C)C(=O)N[C@H](C(=O)N[C@@H](CC(N)=O)C(=O)NCC(=O)N[C@@H](CC(C)C)C(=O)N[C@@H](C)C(=O)N[C@@H](CC(N)=O)C(=O)N[C@@H](CCC(N)=O)C(N)=O)C(C)C)C(C)C` [SLWGKLKEMLAKAGKAVANAVNGLANQ], the MIC was found to be 8 µM (≈ 22.3 µg/mL) in [38]; 16 µM (≈ 44.5 µg/mL) in [39]; 8 µM (≈ 22.3 µg/mL) in assay [40]; 8 µM (≈ 22.3 µg/mL) in assay [41]; 8 µM (≈ 22.3 µg/mL) in assay [42]; 8 µM (≈ 22.3 µg/mL) in [43]. Further, the minimum inhibitory concentration (MIC) in assay [7] is 32 µM (≈ 89 µg/mL).
